We go through six molecules from publication PMC6224419, “Structural Studies based on two Lysine Dioxygenases with Distinct Regioselectivity Brings Insights Into Enzyme Specificity within the Clavaminate Synthase-Like Family” (Scientific Reports, 2018).

Like-named read-outs stand apart in the source and are kept apart here.

One series addresses T1, KDO1 (Catenulispora acidiphila, UniProt C7QJ42).
T1 construct: gene Caci_0231; hexa-histidine tail (pET-22b(+)), E. coli BL21(DE3); dimer in solution; first ordered residue Glu30
T1 sequence (C7QJ42 1-358): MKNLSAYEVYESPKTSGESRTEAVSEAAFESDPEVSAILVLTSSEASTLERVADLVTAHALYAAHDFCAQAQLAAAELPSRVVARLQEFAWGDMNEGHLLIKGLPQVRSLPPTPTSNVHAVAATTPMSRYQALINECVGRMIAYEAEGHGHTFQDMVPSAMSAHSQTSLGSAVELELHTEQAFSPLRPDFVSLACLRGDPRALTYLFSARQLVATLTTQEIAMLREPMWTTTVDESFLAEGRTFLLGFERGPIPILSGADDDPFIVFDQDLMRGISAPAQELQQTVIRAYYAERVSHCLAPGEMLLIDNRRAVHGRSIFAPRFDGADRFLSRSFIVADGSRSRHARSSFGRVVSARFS
Format: binding. Conditions: active site.

The target in a further series is T2, KDO5 (Flavobacterium sp. CF136, UniProt J3BZS6).
T2 construct: gene PMI10_03368; hexa-histidine tail (pET-22b(+)), E. coli BL21(DE3); tetramer in solution; first ordered residue Ala13
In words: X-ray crystal structure (soak). It counts as binding. Conditions: active site.

Series [1] deals with the molecule itself. In words: SEC; analytic gel filtration on Superdex 200 Increase 10/300 GL, 100 µL purified protein, 50 mM Tris-HCl pH 8.0, 50 mM NaCl, 10% glycerol, 0.3 ml/min; oligomeric state from elution volume against a calibration curve; data not shown. Background: In gel filtration, larger molecules generally elute earlier.
Where [2] appears, read: FeSO4/dithionite soak, monomer C.

For the molecule `NCCC[C@H](O)[C@H](N)C(=O)O` [(3S)-3-hydroxy-L-lysine], the “X-ray crystal structure (soak)” value on KDO1 (FeSO4/dithionite soak with succinate, monomer B) is “The (3S)-3-hydroxy-L-lysine makes salt bridges with Glu180”. Regarding `NCCCC[C@H](N)C(=O)O` [L-lysine], the “X-ray crystal structure (soak)” value on KDO5 (setting [2]) is on record as “the carboxylate of L-lysine substrate is stabilized by salt bridges with the Arg338”; at KDO1 (setting [2]), “In KDO1, the L-lysine complex shows a well ordered lysine in monomer C”. Take `O=C(O)CCC(=O)O` [succinate]: the “X-ray crystal structure (soak)” value on KDO5 (crystals soaked with L-lysine and α-ketoglutarate, FeSO4/dithionite, monomer D) is reported as “The succinate resultant from the oxidative decarboxylation of the α-KG, makes H-bond Tyr193”. Turning to `O=C(O)CCC(=O)C(=O)O` [α-KG], the “X-ray crystal structure (soak)” value at KDO5 (FeSO4/dithionite soak, bidentate to iron, monomer A) is “In α-KG bound structure, α-KG is best defined for monomer A”; at KDO1 (FeSO4/dithionite soak, bidentate to iron, monomer B) it was “In the α-KG crystals, the structure shows a well ordered α-KG in monomer B”.

B1: KDO5 from Flavobacterium sp. (L-lysine dioxygenase, C-4 regioselective) (enzyme, UniProt J3BZS6 1-372, looked up)
chain: MKSQSIMSVERSAETSLTLEIPTSPLIIKITQQERNILSNVGNLLVKAFGNYENPDYIASLHLHAFQLLPERITRILSQFGSDFSAEQYGAIVFQGLIEVDQDDLGPTPPNWQGADYGKLNKYGFICSLLHGAVPSKPVQYYAQRKGGGLLHAVIPDEKMAATQTGSGSKTDLFVHTEDAFLSNQADFLSFLYLRNEERVPSTLYSIRSHGKMNPVMKKLFEPIYQCPKDANYNDEDVANSGPTASVLYGNRELPFIRFDAAEQIFNENAGQTSEALGNLMDFWDEAKTLINSDYIPNSGDLIFVNNHLCAHGRSAFIAGQRIENGEIIKCERRQMLRMMSKTSLIHIRSVTRTDDPYFIMEEHLGKIFDLD
notes: KDO5, iron(II)/alpha-ketoacid-dependent lysine dioxygenase of Flavobacterium sp; Cloned into pET-22b(+) with a hexa-histidine tail; Tetramer in solution; four molecules (two dimers) in the asymmetric unit; First ordered residue in the crystals is Ala13; also called K DiOxygenase 5; source: E. coli BL21(DE3), purified (Ni-NTA)
As a reminder, the stoichiometry N is a count of units in the complex or per binding partner. Consider B1, for which the “stoichiometry N” value in series [1] was determined as 4.

B2: KDO1 from Catenulispora acidiphila (L-lysine dioxygenase, C-3 regioselective) (enzyme, UniProt C7QJ42 1-358, looked up)
chain: MKNLSAYEVYESPKTSGESRTEAVSEAAFESDPEVSAILVLTSSEASTLERVADLVTAHALYAAHDFCAQAQLAAAELPSRVVARLQEFAWGDMNEGHLLIKGLPQVRSLPPTPTSNVHAVAATTPMSRYQALINECVGRMIAYEAEGHGHTFQDMVPSAMSAHSQTSLGSAVELELHTEQAFSPLRPDFVSLACLRGDPRALTYLFSARQLVATLTTQEIAMLREPMWTTTVDESFLAEGRTFLLGFERGPIPILSGADDDPFIVFDQDLMRGISAPAQELQQTVIRAYYAERVSHCLAPGEMLLIDNRRAVHGRSIFAPRFDGADRFLSRSFIVADGSRSRHARSSFGRVVSARFS
notes: KDO1, iron(II)/alpha-ketoacid-dependent lysine dioxygenase of Catenulispora acidiphila; Cloned into pET-22b(+) with a hexa-histidine tail; Dimer in solution; four molecules (two dimers) in the asymmetric unit; First ordered residue in the crystals is Glu30; also called K DiOxygenase 1; source: E. coli BL21(DE3), purified (Ni-NTA)
For the molecule B2, the “stoichiometry N” value in series [1] came out at 2.
